The values that follow come from US11850266B2, “Cardiomyocytes and compositions and methods for producing the same” (President and Fellows of Harvard College, priority 2019, dated 2023).

In assay [1] the test system is iPSC-derived cardiomyocytes. Put plainly: Western analysis of protein expression in iPSC-derived cardiomyocytes. It is filed as cell-based, human. As to the method: To prepare for differentiation, iPSCs were plated at a density between 20,000 to 80,000 cells (depending on the cell line) per well of a 12-well plate at four days prior to onset of differentiation. Cells were differentiated according to the protocol previously described by Lian et al. with some modifications (FIG. 1A) (1). Basal media was changed from StemFlex to RPMI/B27 on day 0 of differentiation. The GSK3 inhibitor, CHIR99021 (6 μM), was added for 48 hours from day 0 to day 2 of differentiation when cells were approximately 70-80% confluent. The Wnt antagonist IWP4 (5 μM) was added from days 2 to 4 of differentiation. Insulin (10 μg/ml) was added to the media starting on day 7 of differentiation, and media was changed every 2-3 days. In general, higher purity (TNNT2+) cardiomyocytes were observed when beating initiated prior to day 10 of differentiation, therefore only batches with onset of beating between days 7-10 of differentiation were included in this study. Beating cardiomyocytes were treated with Torin1 (200 nM, unless otherwise noted) or vehicle (0.02% dimethylsulfoxide (DMSO)) beginning at ˜2 days after onset of beating for 7 days (media changed with fresh Torin1 or DMSO every 2-3 days), unless otherwise noted. After Torin1 treatment, media was switched back to RPMI/B27/insulin and maintained with media change every 2-3 days until endpoint assay. In a few assays, fatty acids were added in the form of chemically defined lipids (Gibco) diluted 1:1000 simultaneous with Torin1 treatment. In some other assays, fetal bovine serum (10% FBS) was added to cells after completion of Torin treatment for 2-4 days.
Cells were lysed with lysis buffer (1% Triton X, 0.35% Na-deoxycholate, 1 mM EDTA, 1% protease inhibitor cocktail (Sigma), 1% phosphatase inhibitor cocktail 2 (Sigma), 1% phosphatase inhibitor cocktail 3 (Sigma), 1 mM phenylmethylsulfonyl fluoride (PMSF)) and total protein was measured with the Pierce BCA Protein Assay Kit. Samples with equal total protein quantities (prepared in Laemmli Sample Buffer (Bio-Rad)) were loaded into a Mini-Protean TGX Precast Gel (Bio-Rad) and electrophoresed for 1 hour at 100 V before transfer to a PVDF membrane using the Trans-Blot Turbo Transfer System (Bio-Rad). The Precision Plus Protein Dual Color Standards molecular weight ladder was used to estimate molecular weight of detected bands (Bio-Rad). Membranes were blocked with 5% milk or bovine serum albumin then incubated with the primary antibody (Table 2) overnight at 4 degrees C. followed by incubation with the horseradish peroxidase-conjugated secondary antibody (Table 2) for 1 hour at room temperature. The Amersham ECL Western Blotting Detection kit was used to detect the protein signal by chemiluminescence, and band densities were quantified using ImageJ software (NIH).

Assay [2] has as its system iPSC-derived cardiomyocytes. Briefly: Muscular thin film (MTF) contractile force. The note with it: Torin1 200 nM 7 days, MTFs, FIG. 2F. The assay is classed as cell-based, human. As to the method: Gelatin muscular thin films (MTFs) were prepared as previously described (32). Square 22×22 mm glass coverslips were covered with low adhesive tape (Patco 5560 Removable Protective Film Tape), and an Epilog Mini 24 laser engraving instrument was used to cut the tape such that two inner rectangles (3×10 mm for cantilever region and 7×10 mm for base region) were surrounded by an outer border. The larger inner rectangle was peeled away and this region was activated with 0.1 M NaOH for 5 minutes, then 0.5% (3-aminopropyl)triethoxysilane (APTES) in 95% ethanol for 5 minutes, then 0.5% glutaraldehyde solution for 30 minutes. The glass coverslips were then rinsed and dried. Next, the tape covering the smaller inner rectangle region was peeled away. A 20% w/v stock gelatin (175 g bloom, Type A, Sigma) in distilled water solution was dissolved at 65° C. for 30 minutes and an 8% w/v stock microbial transglutaminase (MTG) (Ajinomoto) in distilled water solution was dissolved at 37° C. for 30 minutes. […] The radius of curvature for each MTF was quantified using ImageJ. Thickness of the MTF was determined using a Zeiss LSM confocal microscope. […] The maximum and average systolic, diastolic, and twitch (systolic—diastolic stress) stresses were calculated for each MTF.

Setting [3] is: Torin1 0-200 nM 4 days prior to harvest on day 22, BJRiPS, FIG. 11.

Take `CCC(=O)N1CCN(c2ccc(-n3c(=O)ccc4cnc5ccc(-c6cnc7ccccc7c6)cc5c43)cc2C(F)(F)F)CC1` [Torin1]: the TNNI1 protein levels result in assay [1] (FIG. 2B, RNA levels not increased) is on record as “increase in TNNI1 protein levels”. Further, in assay [1] (FIG. 5A), the GATA4 protein expression entry is on record as “trend toward increased protein expression”. Moreover, in assay [1] (FIG. 13C, BJRiPS-CM), the “expression of fatty acid receptor CD36” value was “trend toward increased expression”. Also, in assay [1] (Torin1 0, 10, 50, 200 nM 7 days, FIG. 5A), the p21 protein expression result is “dose-dependent decrease”. The “p53 protein (total and phosphorylated)” value in assay [1] (Torin1 0, 10, 50, 200 nM 7 days, Gibco iPS-CM, FIG. 5A) is reported as “dose-dependent increase”. In addition, in assay [1] (setting [3]), the “TNNI3 protein, late treatment” value is “increases expression of TNNI3” and the “p21 protein, late treatment” value is on record as “decreases expression of p21”. The “TNNTI3 by western analysis” value in assay [1] (Torin1 10, 50, 200 nM 4 days, BJRiPS, FIGS. 18F-18G) was “significant increase in TNNTI3”. The “TNNI3 protein (western, densitometry)” value in assay [1] (Torin1 10, 50, 200 nM, 4 days, days 25-29, BJRiPS, FIG. 31) is recorded as “increased protein expression”. In addition, the “TNNT2 and TNNI3 protein expression by western analysis” value in assay [1] (Torin1 7 days, Gibco iPS-CMs, FIG. 2B) is “dose-dependent increase”. Moreover, the “relative maximum systolic force versus control” value in assay [2] is on record as roughly 2 fold.
